# Test results published in patent publication US7622271B2, “Identification of aging genes through large-scale analysis” (University of Washington, priority 2004, dated 2009).
# Read-outs that look alike come from different tables or passages of the source.
# Test system: yeast cells
# Settings: for life span: yeast replicative life span
# Protocol: FIG. 2 illustrates replicative life span (“RLS”) analysis in yeast. […] A mother cell is a yeast cell that has produced one or more daughter cells. […] The total number of mitotic divisions completed by a given mother cell is the replicative life span for that mother cell. One indicator of senescence in yeast is the inability to produce daughter cells.
# A large-scaled, life-span analysis is performed as follows. Approximately three days before initiating a life-span-determination assay, a set of 95 strains contained in a yeast alpha-haploid-deletion collection (Open Biosystems), is transferred to a 96-well plate containing YPDagar using a FX robot, so that each strain occupies one well of a 96-well plate. Concurrently, “wildtype” reference cells (BY4742) are plated within an empty well of the 96-well test plate. For 1-2 days, plated cells are allowed to grow on rich medium, such as YPD, at 30° C. Cells are patched onto life-span-measuring plates containing YPD so that approximately 12 strains are plated per plate the night, or approximately 12 hours, before initiating life-span analysis. A life-span experiment is initiated by gridding a region of the plate distal to growing cells, to which 5 cells of each strain of 12 strains are transferred by micromanipulation. Cells are incubated for two hours at 30° C. Then, virgin daughter cells of each deletion variant cell are selected, and original mother cells are removed. Such virgin daughter cells are monitored for de novo production of daughters at 2-3 hour intervals. Produced daughters are individually removed, and tabulated. Mother cells are placed back at 30° C. to allow continued growth. During evening hours, cells are moved to 4° C. so that the cell division rate is reduced to one cell division per evening. The following day, cells are placed at 30° C. to resume growth. This process is continued for a period of time, approximately two weeks, to allow cells of each variant strain to exhaust its proliferative potential. The total number of daughter cells produced by each mother variant cell is tabulated, and determined RLS values are entered into a database.
smiles,measurement,setting,value
"CS(=N)(=O)CC[C@H](N)C(=O)O (stereo partly drawn) [MSX, methionine sulfoximine]",life span,"50 uM, preliminary experiments",significantly increases life span
same,life span,"100 uM, preliminary experiments",significantly increases life span
same,increase in mean replicative life span,"1 mM (maximal life span extension), preliminary experiments",25-30%
same,life span,"1 mM, preliminary experiments",significantly increases life span
same,life span,"2.5 mM, preliminary experiments",significantly increases life span
same,replicative life span in yeast,exposure of yeast cells to MSX,extends replicative life span
